# In patent US5073563A, “Alkoxycoumarins substituted by a heterocyclic radical, their preparation and therapeutic agents containing these compounds” (BASF Aktiengesellschaft, priority 1988, dated 1991):
# Structures can show the parent of a compound that is named as a salt.
# Tests used:
# [1] = literature test; cited from earlier work
# [2] = literature test; cited from earlier work; remark: listed apart in the source
# MAO A = biological target: T1, MAO A (Rattus norvegicus, UniProt P21396); test: MAO A inhibition in dilute rat brain homogenate (14C substrate, 20 min at 37° C); format: biochemical; conditions: 14C-phenylethylamine or 14C-tryptamine 0.4 μmol/l, logit-log regression
# T1 construct: determined in dilute rat brain homogenate; from tissue; host or cells: rat brain homogenate
# T1 sequence (P21396 1-526): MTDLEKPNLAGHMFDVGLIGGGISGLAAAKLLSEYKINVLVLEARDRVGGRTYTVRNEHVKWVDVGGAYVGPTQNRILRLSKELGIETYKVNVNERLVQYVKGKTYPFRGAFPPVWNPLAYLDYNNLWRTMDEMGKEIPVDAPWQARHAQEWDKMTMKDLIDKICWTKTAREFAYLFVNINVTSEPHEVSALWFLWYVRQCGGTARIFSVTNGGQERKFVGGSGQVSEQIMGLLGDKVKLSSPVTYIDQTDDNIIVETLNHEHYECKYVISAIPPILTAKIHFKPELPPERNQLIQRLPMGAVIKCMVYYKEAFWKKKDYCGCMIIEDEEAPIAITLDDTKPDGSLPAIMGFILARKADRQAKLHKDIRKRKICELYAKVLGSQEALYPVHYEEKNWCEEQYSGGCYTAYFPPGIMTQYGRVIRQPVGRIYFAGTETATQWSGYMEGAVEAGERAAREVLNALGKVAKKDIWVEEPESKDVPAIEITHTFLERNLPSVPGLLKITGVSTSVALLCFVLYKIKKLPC
# Description: (§1) The MAO-inhibiting activity of the novel compounds can be determined using standard methods. […] The mixture was incubated for 20 minutes at 37° C.
# (§2) The blank value was determined in similar mixtures with an incubation time of t=0 min.
# (§3) From the inhibitory values determined at the various inhibitor concentrations against a control, the mean inhibitory concentration (IC50) was calculated by linear regression following logit-log transformation.
# MAO B = biological target: T2, MAO B (Rattus norvegicus, UniProt P19643); test: MAO B inhibition in dilute rat brain homogenate (14C substrate, 20 min at 37° C); format: biochemical; conditions: for IC50 ratio MAO A / MAO B: quotient of IC50 MAO A and IC50 MAO B (selectivity for MAO B), 20 min; for IC50: rat brain homogenate, 14C-phenylethylamine or 14C-tryptamine 0.4 μmol/l, 20 minutes at 37° C, logit-log regression
# T2 construct: determined in dilute rat brain homogenate; from tissue; host or cells: rat brain homogenate
# T2 sequence (P19643 1-520): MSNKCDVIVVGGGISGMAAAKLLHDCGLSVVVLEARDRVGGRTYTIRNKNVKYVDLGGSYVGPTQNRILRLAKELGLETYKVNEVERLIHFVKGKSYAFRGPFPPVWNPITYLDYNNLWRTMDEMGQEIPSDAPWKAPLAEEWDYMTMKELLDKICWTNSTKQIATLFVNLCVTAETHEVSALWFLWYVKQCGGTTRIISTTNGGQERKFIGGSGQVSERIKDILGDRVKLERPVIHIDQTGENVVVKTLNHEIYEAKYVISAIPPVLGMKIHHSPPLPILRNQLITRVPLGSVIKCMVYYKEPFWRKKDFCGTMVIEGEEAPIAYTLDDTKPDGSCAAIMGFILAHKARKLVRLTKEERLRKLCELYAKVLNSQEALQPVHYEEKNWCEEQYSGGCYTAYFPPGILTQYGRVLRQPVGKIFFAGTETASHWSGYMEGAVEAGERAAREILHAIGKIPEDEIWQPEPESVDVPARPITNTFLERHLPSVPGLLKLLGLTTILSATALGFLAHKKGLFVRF
# Description: as §1, §2, §3
Structure (SMILES),fungicidal action [1],bacteriostatic action [2],IC50 (MAO A),IC50 ratio MAO A / MAO B (MAO B),IC50 (MAO B)
Cc1cc(=O)oc2cc(OCc3cc(-c4ccccc4)no3)ccc12 [4-methyl-7-(3-phenylisoxazol-5-yl-methoxy)-coumarin],little or no success,little or no success,–,–,–
"Cc1c(C)c2ccc(OCc3ncnn3C(C)C)cc2oc1=O [Example 70, 7-(1-Isopropyl-1,2,4-triazol-5-yl)-methoxy-3,4-dimethylcoumarin hydrochloride]",–,–,> 10000 nM,> 770,13 nM
"Cc1c(C)c2ccc(OCc3cc(C(C)C)nn3C)cc2oc1=O [Example 72, 7-(3-Isopropyl-1-methylpyrazol-5-yl)-methoxy-3,4-dimethylcoumarin]",–,–,~10000 nM,~ 2000,4.9 nM
"Cc1c(C)c2ccc(OCc3cc(C)n(C)n3)cc2oc1=O [Example 73, 3,4-Dimethyl-7-(1,5-dimethylpyrazol-3-yl)-methoxycoumarin]",–,–,> 10000 nM,> 700,14 nM
"Cc1c(C)c2ccc(OCc3csc(Cc4ccccc4)n3)cc2oc1=O [Example 74, 7-(2-Benzylthiazol-4-yl)-methoxy-3,4-dimethylcoumarin]",–,–,3200 nM,580,5.5 nM
"Cc1c(C)c2ccc(OCc3csc(C(C)C)n3)cc2oc1=O [Example 75, 7-(2-Isopropylthiazol-4-yl)-methoxy-3,4-dimethylcoumarin]",–,–,~10000 nM,~ 7000,–
"Cc1c(C)c2ccc(OCc3cc(C4CCCC4)no3)cc2oc1=O [Example 78, 7-(3-Cyclopentylisoxazol-5-yl)-methoxy-3,4-dimethylcoumarin]",–,–,> 10000 nM,> 7700,1.3 nM
"COC(C)c1cc(COc2ccc3c(C)c(C)c(=O)oc3c2)on1 (stereo not shown) [Example 79, 7-[3-(1-Methoxyethyl)-isoxazol-5-yl]-methoxy-3,4-dimethylcoumarin]",–,–,2900 nM,2400,1.2 nM
"Cc1c(C)c2ccc(OCc3csc(C4CC4)n3)cc2oc1=O [Example 80, 7-(2-Cyclopropylthiazol-4-yl)-methoxy-3,4-dimethylcoumarin]",–,–,~10000 nM,~ 7100,1.4 nM
"CCc1cc2c(C)c(C)c(=O)oc2cc1OCc1cc(C(C)C)n(C)n1 [Example 84, 6-Ethyl-7-(5-isopropyl-1-methylpyrazol-3-yl)-methoxy-3,4-dimethylcoumarin]",–,–,> 10000 nM,> 1100,9.1 nM
"CCc1cc2c(C)c(C)c(=O)oc2cc1OCc1nnc(C)s1 [Example 85, 6-Ethyl-3,4-dimethyl-7-(2-methyl-1,3,4-thiadiazol-5-yl)-methoxycoumarin]",–,–,> 10000 nM,> 1700,6.9 nM
"Cc1c(C)c2ccc(OCc3cc(C4CCCCC4)no3)cc2oc1=O [Example 87, 7-(3-Cyclohexylisoxazol-5-yl)-methoxy-3,4-dimethylcoumarin]",–,–,> 10000 nM,> 700,14 nM
"Cc1c(C)c2ccc(OCc3ccc(C(C)(C)C)s3)cc2oc1=O [Example 92, 7-(2-tert-Butylthiophen-5-yl)-methoxy-3,4-dimethylcoumarin]",–,–,> 10000 nM,> 1000,~10 nM
"Cc1c(C)c2ccc(OCc3nnc(C4CC4)s3)cc2oc1=O [Example 94, 3,4-Dimethyl-7-(2-cyclopropyl-1,3,4-thiadiazol-5yl)-methoxycoumarin]",–,–,~10000 nM,~ 8300,1.2 nM
Cc1c(C)c2ccc(OCc3cc(C4(C)CC4)no3)cc2oc1=O [Example 96],–,–,~20000 nM,~ 32000,0.61 nM
"Cc1c(C)c2ccc(OCc3cc(C4CCOC4)no3)cc2oc1=O (stereo not shown) [Example 97, 3,4-Dimethyl-7-[3-(tetrahydrofuran-3-yl)-isoxazol-5-yl]-methoxycoumarin]",–,–,~5000 nM,~ 1400,3.6 nM
Cc1c(C)c2ccc(OCc3nc(C4CCCC4)no3)cc2oc1=O [Example 98],–,–,> 10000 nM,> 11000,0.92 nM
"Cc1c(C)c2ccc(OCc3cc(C4CCCCC4)no3)cc2oc1=O [Example 99, 3,4-Dimethyl-7-(3-cyclohexylisoxazol-5-yl)-methoxycoumarin]",–,–,> 10000 nM,> 1200,8.2 nM
"Cc1c(C)c2cc(Cl)c(OCc3ccccn3)cc2oc1=O [Example 100, 6-Chloro-3,4-dimethyl-7-(2-pyridinyl)-methoxycoumarin]",–,–,> 10000 nM,> 13000,0.74 nM
"Cc1nnc(COc2cc3oc(=O)c(Cl)c(C)c3cc2Cl)s1 [Example 101, 3,6-Dichloro-4-methyl-7-(5-methyl-1,3,4-thiadiazol-2-yl)-methoxycoumarin]",–,–,> 10000 nM,> 10000,1 nM
"Cc1c(Cl)c(=O)oc2cc(OCc3csc(C(C)C)n3)c(Cl)cc12 [Example 103, 3,6-Dichloro-4-methyl-7-(2-isopropylthiazol-4-yl)-methoxycoumarin]",–,–,> 10000 nM,> 5500,1.8 nM
